Experimental findings from patent US11324725B2, “Compositions and methods for the inhibition of pruritus” (The United States of America, as represented by the …, priority 2017, dated 2022) are described below.

One data set concerns the target Firefly luciferase (Photinus pyralis, UniProt P08659). Description: Biochemical Firefly luciferase enzymatic counter-screen. The settings on record: for Imax, Fluc in vitro: −100% = 57.5 μM PTC124, n.d. = inhibition not detectable at all; for Direct effect on Firefly luciferase (in words): FLuc in vitro. The method, then: Direct effects of compounds on firefly luciferase enzymatic activity were tested in vitro. A Firefly luciferase enzyme assay was performed on the 1,408 follow-up compounds. To achieve half-maximal reaction velocity, the D-Luciferin substrate concentration equaled Km and the assay was otherwise performed according to Jang et al., ACS Chem. Bio., 7: 1205-1213 (2012) (which is incorporated herein by reference, in its entirety), as follows: 3 μl of substrate-buffer solution (0.01 mM D-Luciferin, 0.01 mM ATP, 50 mM Tris Acetate, 10 mM Mg Acetate, 0.01% Tween-20 and 0.038% BSA final concentrations) were dispensed into white, solid bottom medium bind 1536-well plates (Greiner Bio-One) with a BioRAPTR Flying Reagent Dispenser™ (Beckman Coulter). Compounds were transferred as described for qHTS along with DMSO (as a negative control) and titrations of PTC124 (as a positive control), ranging from the top concentration of 57.5 μM to 4.0 μM in columns 1-4 of each plate as vehicle and positive controls, respectively. Luciferase enzyme-buffer solution (1 μl) (10 nM P. pyralis luciferase in 50 mM Tris Acetate final concentration) was dispensed and after a 5-minute incubation at room temperature, luminescence was read on a ViewLux™ plate reader.

Data set [1] has as its system soluble guanylate cyclase / pGloSensor-40F reporter in HEK-cGMP-sensor cells. Description: Counter-screen, SNP-stimulated HEK-cGMP-sensor cells. It is filed as cell-based, human. An excerpt: In order to identify small molecular compounds that inhibit the Npr1 receptor a high-throughput assay to probe inhibition of the receptor guanylate cyclase Npr1 was developed. The assay was designed taking advantage of Promega's GloSensor™ technology (Promega, Madison, Wis.). This technology involves the expression of a cyclic guanosine monophosphate (cGMP) biosensor, comprised of a firefly luciferase variant that was coupled to the cGMP binding domain of human phosphodiesterase 5A, and loading of cells with a cell-permeable luciferase substrate to monitor cGMP production by Npr1 in real time in live cells. Briefly, human embryonic kidney 293 cells stably expressing the human Npr1 and the pGloSensor™-40F cGMP vector (“pGloSensor™-40F”) were generated. Stimulating these cells with the Npr1 agonists human NppA or NppB, luciferase-induced light production could be detected in a dose-dependent manner. HEK293 cells stably expressing human Npr2 and pGS-40F and cells only expressing pGS-40F were also generated to conduct secondary counter screens. In these cells, NppC or sodium nitroprusside were used to stimulate Npr2 or soluble guanylate cyclase which is endogenously expressed in HEK293 cells, respectively. The Npr2-NppC counter screen was employed to search for agents that minimally effected this agonist-receptor interaction. The Npr2-NppC system was used because the side effects of most drugs occur on related receptors. Npr1 and Npr2 are the most related receptors in sequence and function and there are no additional active receptor subtypes in this family of receptors. The procedure is described in detail below.
First, hNpr1 assays were repeated, at 11 concentrations on all selected compounds, to validate all positive compounds from the primary screen. This confirmed the selection criteria used for the selection of the active compounds. […]

The test system of data set [2] is HEK-hNpr1-cGMP-sensor cells. Put plainly: Cytotoxicity counter-screen (CellTiter-Glo). It is filed as cell-based, human. To be noted: for Imax, cytotoxicity: −100% = 115 μM Digitonin, n.d. = inhibition not detectable at all. Here is the method: (§1) Compound cytotoxicity was tested with Promega's CellTiter-Glo™ assay which measures cellular adenosine triphosphate content, a surrogate of metabolic activity, with a firefly luciferase reagent. A cytotoxicity counter-screen using HEK-hNpr1-cGMP-sensor cells was performed on the 1,408 follow-up compounds. Cells (1.5×10^3) cells were plated in 4 μL C02-independent media in white, solid bottom TC-treated 1536-well plates (Greiner Bio-One). Cells were incubated at 37° C., 5% CO2 and 95% humidity for 16 hours. Compound transfer was performed as described for qHTS along with DMSO and a titration of Digitonin from a top concentration of 115 μM to 3.5 nM in columns 1-4 of each assay plate as vehicle and cytotoxicity controls, respectively. Cells were incubated with compound for 2 hours at 37° C. CellTiter-Glo™ reagent (Promega) (3 μl) was added to each well with a BioRAPTR Flying Reagent Dispenser™ (Beckman Coulter) and plates were incubated for 10 min at room temperature, protected from light. Luminescence was measured on a ViewLux™ plate reader. Data were normalized to the average signal of DMSO-treated wells as 0% and the average signal of wells treated with 115 μM Digitonin as −100% activity and analyzed as above.
In general terms: Counterscreens check selectivity or assay interference.

Data set [3] in a line: Cytotoxicity counter-screen (CellTiter-Glo). It is filed as cell-based, human. To be noted: human, HEK-hNpr1-cGMP-sensor cells; 2 hours with compound, CellTiter-Glo. Here is the method:
as §1

In a further data set the test system is C57BL/6N mice. Put plainly: Rotarod performance and gross behavior after JS-11. The data set is classed as in vivo, mouse. Here is the method:
All experiments using mice followed NIH guidelines and were approved by the National Institute of Dental and Craniofacial Research ACUC. Behavioral assessment of scratching behavior was conducted as follows: 6-8-week old female C57BL/6N mice (Envigo) were injected intraperitoneally with JS-11 (163 μg) or DMSO (20%) as a vehicle control. Ten minutes later, 100 μg histamine diluted in 10 μl PBS or 8.9 μg CYM5442 diluted in 10 μl ddH2O was injected subcutaneously into the nape of the neck. Scratching behavior was recorded for 30 minutes and is presented in bouts per 30 minutes. One bout was defined as scratching behavior towards the injection site between lifting the hind leg from the ground and either putting it back on the ground or guarding the paw with the mouth. To control for motor impairment by JS-11, rota-rod performance was also assessed 10 minutes after intraperitoneal injection.

Entries after “also recorded” stand apart in the source; their conditions may differ.

Sequence of Firefly luciferase (P08659 whole entry): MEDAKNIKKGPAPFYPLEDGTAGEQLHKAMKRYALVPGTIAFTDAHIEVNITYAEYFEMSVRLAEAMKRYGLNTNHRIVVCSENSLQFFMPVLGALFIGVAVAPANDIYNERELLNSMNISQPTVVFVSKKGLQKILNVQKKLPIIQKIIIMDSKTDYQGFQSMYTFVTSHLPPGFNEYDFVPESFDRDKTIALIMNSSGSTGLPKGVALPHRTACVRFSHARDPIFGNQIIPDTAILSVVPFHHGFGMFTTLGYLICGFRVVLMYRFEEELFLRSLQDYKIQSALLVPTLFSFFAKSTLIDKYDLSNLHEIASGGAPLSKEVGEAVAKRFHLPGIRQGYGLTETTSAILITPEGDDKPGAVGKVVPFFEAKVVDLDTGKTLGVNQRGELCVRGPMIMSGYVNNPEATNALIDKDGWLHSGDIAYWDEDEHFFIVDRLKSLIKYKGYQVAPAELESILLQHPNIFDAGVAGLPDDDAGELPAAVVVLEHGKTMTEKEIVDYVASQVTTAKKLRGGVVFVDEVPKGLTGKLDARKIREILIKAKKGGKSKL

Take `Cl.O=C1Nc2ccccc2CN(CC2CCCCC2)C12CCNCC2` [JS-1, 4-(cyclohexylmethyl)-4,5-dihydrospiro[benzo[e][1,4]diazepine-3,4′-piperidin]-2(1H)-one hydrochloride]: at Firefly luciferase, the “Imax, Fluc in vitro” value is −3 ± 3%.
Take `CCC(CC)c1cc([C@H]2CN3CC[C@H]2C[C@@H]3CNS(=O)(=O)c2cccs2)nc(-c2ccncc2)n1` [JS-3, N-(((2R,4S,5R)-5-(6-(pentan-3-yl)-2-(pyridin-4-yl)pyrimidin-4-yl)quinuclidin-2-yl)methyl)thiophene-2-sulfonamide]: at Firefly luciferase, it took 25 ± 4 µM to reach half-maximal inhibition (IC50) and the “Imax, Fluc in vitro” value is −1 ± 6%.
Regarding `Cc1noc(C)c1-c1cc(-c2ccccc2Oc2ccccc2)cn2cncc12` [JS-5, 3,5-dimethyl-4-(6-(2-phenoxyphenyl)imidazo[1,5-a]pyridin-8-yl)isoxazole], in data set [1], the “Effect on SNP-induced GloSensor signals (in words)” value was “do not attenuate SNP dependent cGMP sensor activation; also recorded: does not block SNP-induced GloSensor™ signals”. For the same molecule, the “Direct effect on Firefly luciferase (in words)” value (“Direct effect” for short) at Firefly luciferase is “do not directly inhibit luciferase; also recorded: does not inhibit Firefly luciferase”. In addition, the “Cytotoxicity (in words)” value in data set [2] was “are not cytotoxic; also recorded: does not produce cytotoxicity”.
Turning to `COc1ccccc1-c1n[nH]c2ncc(C(=O)NCc3cccnc3)nc12` [JS-6, 3-(2-methoxyphenyl)-N-(pyridin-3-ylmethyl)-1H-pyrazolo[3,4-b]pyrazine-5-carboxamide], the IC50 at 2 h in data set [3] amounted to 45 ± 43 µM. For the same molecule, the “Imax, cytotoxicity” value in data set [2] is recorded as −36 ± 87%.
Consider `Cc1nn2c(c1-c1ccccc1OCc1ccccc1)N(C(=O)Cc1ccc3c(c1)OCO3)CCC2` [JS-8, 2-(benzo[d][1,3]dioxol-5-yl)-1-(3-(2-(benzyloxy)phenyl)-2-methyl-6,7-dihydropyrazolo[1,5-a]pyrimidin-4(5H)-yl)ethan-1-one], for which, in data set [1], the “Effect on SNP-induced GloSensor signals (in words)” value is reported as “do not attenuate SNP dependent cGMP sensor activation; also recorded: does not block SNP-induced GloSensor™ signals”. In addition, the “Direct effect” value at Firefly luciferase was “do not directly inhibit luciferase; also recorded: does not inhibit Firefly luciferase”. Besides, the concentration for half-maximal inhibition (IC50) at 2 h in data set [3] was 49 ± 14 µM. Moreover, in data set [2], the “Cytotoxicity (in words)” value was “are not cytotoxic; also recorded: does not produce cytotoxicity” and the “Imax, cytotoxicity” value is recorded as −22 ± 29%.
As for `Cc1cc(CNC(=O)c2ccc3c(c2)n(CC2CC2)c(=O)n3C2CCCCC2)on1` [JS-11, 1-cyclohexyl-3-(cyclopropylmethyl)-N-((3-methylisoxazol-5-yl)methyl)-2-oxo-2,3-dihydro-1H-benzo[d]imidazole-5-carboxamide], the “Effect on SNP-induced GloSensor signals (in words)” value in data set [1] is on record as “do not attenuate SNP dependent cGMP sensor activation; also recorded: does not block SNP-induced GloSensor™ signals”. Moreover, on Firefly luciferase, the “Direct effect” value is listed as “do not directly inhibit luciferase; also recorded: does not inhibit Firefly luciferase”. Also, the “Cytotoxicity (in words)” value in data set [2] is reported as “are not cytotoxic; also recorded: does not produce cytotoxicity”. Besides, the Overall mouse behavior entry in the data set on C57BL/6N mice (163 μg intraperitoneally) is recorded as “no gross change in overall mouse behavior”. For the same molecule, in the data set on C57BL/6N mice (10 minutes after 163 μg JS-11 intraperitoneally), the “Motor coordination (rotarod performance)” value was “no impairment of motor coordination; also recorded: not significantly altered”.

For orientation: IC50 means the concentration needed to halve the response being measured.
